The results in this text go back to patent publication US7183383B2, “Uses of collagen IV” (The University of Arkansas for Medical Sciences, priority 2002, dated 2007).

Common to all, as to assay type: cell-based, rabbit
The subject of data set [1] is Na^+/K^+-ATPase activity in renal proximal tubular cells. Briefly: Na^+/K^+-ATPase activity (ouabain-sensitive ATPase). The note with it: day 6 after DCVC injury; 50 μg/ml. The procedure: (§1) Confluent monolayers of renal proximal tubular cells (day 6 after seeding) were exposed to 200 μM S-(1,2-dichlorovinyl)-L-cysteine (dissolved in water) for 1.75 hours followed by toxicant removal and addition of fresh culture media. This method produces approximately 50% cell death and loss 24 hours after the exposure. On days 1, 4, and 6 following S-(1,2-dichlorovinyl)-L-cysteine exposure, the ability of the remaining renal proximal tubular cells to regenerate and repair physiological function was monitored as described below. In some experiments, immediately after S-(1,2-dichlorovinyl)-L-cysteine exposure and after daily media change through day 6 after injury, collagen I (0, 5, 15, or 50 μg/ml), collagen IV (0, 5, 15, or 50 μg/ml), laminin (50 μg/ml), or cellular fibronectin (50 μg/ml) was added to the culture media of uninjured and S-(1,2-dichlorovinyl)-L-cysteine-injured renal proximal tubular cells grown in physiological concentrations of AscP. Exogenous collagens I and IV used in this study were triple helical and contained only α1 and α2 chains in conformations similar to those found in the renal basement membrane (3, 25). Laminin was a mixture of biologically active laminin chains found in most epithelial tissues (8, 50) and cellular fibronectin was composed of functional dimers (51).
On days 1 and 6 after sublethal S-(1,2-dichlorovinyl)-L-cysteine injury, total ATPase activity was measured using a modification of a previously described procedure (44). Briefly, renal proximal tubular cells cultured in 48-well cell culture clusters were scraped and incubated in dissociation buffer (5 mM HEPES (pH 7.4), 25 mM imidazole, 1% BSA, 0.065% sodium dodecyl sulfate (SDS)) for 10 min. at room temperature and placed on ice. The dissociated renal proximal tubular cells were then diluted 5-fold with additional dissociation buffer minus SDS. Aliquots of dissociated renal proximal tubular cells were combined with fresh ATPase assay buffer (2.54 mM MgCl2, 100 mM NaCl, 10 mM KCl, 5 mM HEPES, 10 U/ml lactate dehydrogenase, 7 U/ml pyruvate kinase, 2.54 mM Na2ATP, 2.54 mM phospho(enol)pyruvate, and 0.5 mM β-NADH). ATPase activity was measured under linear conditions spectrophotometrically as the oxidation of β-NADH to NAD^+ at 37° C. in the absence or presence of ouabain (0.1 mM) at a wavelength of 340 nm. Na^+/K^+-ATPase activity was calculated as total ATPase activity minus ouabain-insensitive ATPase activity.
Confluent monolayers of renal proximal tubular cells (day 6 after seeding) were exposed to 200 μM S-(1,2-dichlorovinyl)-L-cysteine (dissolved in water) for 1.75 hours followed by toxicant removal and addition of fresh culture media. This method produces approximately 50% cell death and loss 24 hours after the exposure. In some experiments, exogenous collagen IV (50 μg/ml), collagen I (50 μg/ml), or function-stimulating antibodies to collagen-binding integrin subunits α2 or β1 (5 μg/ml) was added daily to the culture media of S-(1,2-dichlorovinyl)-L-cysteine-injured renal proximal tubular cells cultured in the absence of pharmacological concentrations of L-ascorbic acid-2-phosphate. Function-stimulating antibodies to collagen-binding integrin α1 are not commercially available at this time. On days 1 and 6 following S-(1,2-dichlorovinyl)-L-cysteine exposure, active Na^+ transport or Na^+/K^+-ATPase activity, and collagen-binding integrin expression and/or localization in the remaining sublethally injured renal proximal tubular cells was determined as described below.
Total ATPase activity was measured as described above. […]

Data set [2] deals with renal proximal tubular cells. Briefly: Cell density (monolayer protein content) in DCVC-injured RPTC. As to conditions: for monolayer protein content in injured RPTC: day 1 or day 6 after DCVC, 50 μg/ml. As to the method: Rabbit renal proximal tubules were isolated using the iron oxide perfusion method and grown in 35-mm tissue culture dishes or 48-well cell culture clusters under improved conditions as previously described (35, 36). The cell culture medium was a 1:1 mixture of DMEM/Ham's F-12 (without D-glucose, phenol red, or sodium pyruvate) supplemented with 15 mM HEPES buffer, 2.5 mM L-glutamine, 1 μM pyridoxine HCl, 15 mM sodium bicarbonate, and 6 mM lactate. Hydrocortisone (50 nM), selenium (5 ng/ml), human transferrin (5 μg/ml), bovine insulin (10 nM), and L-ascorbic acid-2-phosphate (50 μM or 500 μM) were added to fresh culture medium immediately prior to daily media change. L-Ascorbic acid-2-phosphate (AscP) was used due to the fact that L-ascorbic acid is unstable in culture media. AscP is stable in culture media for ≧7 days at 37° C. and, after intracellular dephosphorylation, has the same effect on cultured cells as L-ascorbic acid (13).
as §1
Measurement of monolayer protein content over time was used to estimate cell density. On days 1, 4, and 6 after sublethal S-(1,2-dichlorovinyl)-L-cysteine injury, renal proximal tubular cell monolayers were washed with PBS and solubilized in Triton buffer (0.05% Triton X-100, 100 mM Tris-Base, 150 mM NaCl, pH 7.5). Samples were sonicated and protein concentrations determined using the method of Lowry (26) or the bicinchoninic acid microassay according to the manufacturer's instructions (Pierce, Rockford, Ill.).

Data set [3] has as its system renal proximal tubular cells. Nature of the data set: Basal oxygen consumption (QO2), a measure of mitochondrial function. The procedure:
as §1
On days 1, 4, and 6 after sublethal S-(1,2-dichlorovinyl)L-cysteine injury, renal proximal tubular cells bathed in 37° C. culture medium were gently detached from culture dishes with a rubber policeman and transferred to a 37° C. oxygen consumption (QO2) chamber. Basal renal proximal tubular cells QO2 was measured polarographically using a Clark-type electrode as described previously (36).

Setting [4] is: day 1 after DCVC injury, in presence of exogenous protein.
The mark [5] stands for this setting: day 6 after DCVC injury, 5, 15, 50 μg/ml.
The mark [6] stands for this setting: uninjured RPTC, days 1 or 6, exogenous protein.

Consider laminin, for which, in data set [1], the “Na^+/K^+-ATPase activity in injured RPTC” value is recorded as “remained inhibited”. Besides, the “monolayer protein content in injured RPTC” value (shortened to “monolayer protein content”) in data set [2] is “no change”.

fibronectin: in data set [1], the “Na^+/K^+-ATPase activity in injured RPTC” value is on record as “remained inhibited”. Besides, in data set [2], the “monolayer protein content” value is on record as “no change”.

As to “collagen I: Rat tail collagen I; triple helical, containing only α1 and α2 chains”, the “decrease in basal QO2” value in data set [3] (setting [4]) was “approximately 50%”. Moreover, the “repair of basal QO2” value in data set [3] (setting [5]) was “neither increased cell density nor repair of basal QO2”. In data set [3] (setting [6]), the “basal QO2 in untreated RPTC” value is given as “no effect”. Further, in data set [1], the “Na^+/K^+-ATPase activity in injured RPTC” value is “remained inhibited”. Also, the “decrease in monolayer cell density” value in data set [2] (setting [4]) is given as “approximately 50%”. The “monolayer protein content” value in data set [2] is given as “no change”. The cell density entry in data set [2] (setting [5]) is “neither increased cell density nor repair of basal QO2”. The “monolayer cell density in untreated RPTC” value in data set [2] (setting [6]) is recorded as “no effect”.
